Test results published in patent US10578622B2, “Sensors for detecting citrate, and method of detecting citrate using the same” (KOREA INSTITUTE OF SCIENCE AND TECHNOLOGY, priority 2017, dated 2020).

Legend:
[1] = Photophysical properties of the citrate detection sensor in the presence and absence of citrate; type: physicochemical
Method: Meanwhile, referring to FIG. 5, it can be seen that the citrate detection sensor not subjected to reaction with citrate expresses (blue) fluorescence while emitting weak fluorescence at 346 nm and 458 nm. On the contrary, when citrate is added to the citrate detection sensor including 2 μM of ARBD in the presence of 10 mM of 4-(2-hydroxyethyl)-1-piperazineethane sulfonic acid (HEPES) buffer (2 vol % DMSO) at pH 7.4, it can be seen that strong fluorescence appears at 548 nm together with a dramatic color change from blue to green. […] However, such a change in fluorescence is differentiated preferentially by visualization.

[2] = Job plot and reaction kinetics of the sensor including ARBD with citrate; conditions: reaction with citrate; plot of ln(Fmax−F)/Fmax vs time
Excerpt: To understand the bonding behavior in the reaction between the citrate detection sensor including ARBD and citrate, the reaction was investigated by using the Job plot.
It can be seen from FIG. 3 that the maximum absorption intensity appears at a molar fraction of 0.5. Thus, it can be seen that a 1:1 complex is formed during the reaction of the citrate detection sensor with citrate. In this case, the reaction kinetics may be expressed by −kt=ln(Fmax−F)/Fmax (wherein k=rate constant, and ‘F’ and ‘Fmax’ represent the fluorescence intensity at time ‘t’). In addition, the maximum intensity reaction value accomplished after the completion of the reaction was calculated by using the plot of ‘ln(Fmax−F)/Fmax vs time’ as shown in FIG. 4.

[3] = Fluorescence intensity as a function of time and pH in the presence of citrate; type: physicochemical
Method: Meanwhile, FIG. 6A to FIG. 6C show a graph illustrating a change in fluorescence intensity of the citrate detection sensor as a function of time in the presence of different concentrations of citrate (0-0.9 μM), a graph illustrating fluorescence emission intensity of ARBD and citrate at different pH values and a fluorescence image thereof, respectively.
When optimizing the determination condition in FIG. 6A, it can be seen that the maximum value of fluorescence intensity is accomplished within about 15 minutes. […] Thus, it can be seen that when citrate is introduced to the citrate detection sensor, fluorescence enhancement may be varied with pH.

[4] = High-sensitivity detection of citrate (UV-Vis absorption and fluorescence titration); conditions: pH 7.4, 10 mM HEPES (2 vol % DMSO)
Method: The initial citrate tracking ability of the citrate detection sensor including ARBD was evaluated by using UV-Vis absorption spectrometry using ARBD at pH 7.4 in the presence of 10 mM of HEPES buffer solution (2 vol % DMSO). Referring to FIG. 7A to FIG. 7C, it is possible to determine a change in fluorescence spectrum of ARBD when adding citrate at a concentration increasing linearly. […] The absorption intensity at 346 nm is decreased whenever citrate is added and a new peak position appears at 400 nm. In addition, as shown in FIG. 7A to FIG. 7C, it can be seen that an increase in concentration of citrate affects both the fluorescence intensity and the fluorescence wavelength. Further, it can be seen that when the concentration of citrate is increased from 0 to 800 nM for the citrate detection sensor including 2 μM of ARBD at pH 7.4 in the presence of 10 mM of HEPES buffer solution (2 vol % DMSO), the maximum fluorescence intensity is increased linearly to 548 nm. It can be also seen that when the concentration of citrate is increased to 950 nM, the peak at 548 nm is increased linearly while causing no change in wavelength.

[5] = Selectivity and interference of the citrate detection sensor
Method: The citrate detection sensor was used to test the selectivity and interference capability to the related similar species for the detection of the other biological carboxylate and citrate. For this test, 1 μM of citrate and 0.5 mM of the other ions were added ((1) sensor, (2) citrate, (3) fumarate, (4) benzoate, (5) glutamate, (6) succinate, (7) malonate, (8) oxalate, (9) acetate, (10) phosphate, (11) sulfite, and (12) sulfate).
Referring to FIG. 8C, it can be seen that even when the other ionic substances have a concentration at least 500 times higher than the concentration of citrate, the citrate detection sensor is reactive selectively with citrate without any interference under high sensitivity. In addition, since it is well known that boronate is a diol sensor, selectivity was also determined for the other materials having a diol moiety, such as hydrogen peroxide (H2O2), glucose, fructose, sucrose, dopamine species, or the like. […] Although the two analytes undergo a reaction in response to the fluorescence intensity, it can be seen that citrate emits green fluorescence and H2O2 emits blue fluorescence. Thus, it can be seen that since only citrate emits green fluorescence in a biological sample at a concentration of ‘μM’ scale, it is possible to detect citrate with ease by the naked eyes through the citrate detection sensor.

PC3 cells = test: Fluorescence expression of the citrate detection sensor in living PC3 cells; type: cell-based; conditions: ARBD 2 μM, cultured 30 minutes
Method: The citrate detection sensor was evaluated in terms of its probe capability in living cells (PC3). […] Particularly, after the citrate sensor including ARBD (2 μM) was cultured for 30 minutes, the image in PC3 cells was observed.
FIG. 9A to FIG. 9C show the fluorescence expressed generally when ARBD is introduced to prostate cancer cells. The image (FIG. 9C) of the expressed fluorescence (FIG. 9A) overlapped with the photo image (FIG. 9B) of the cell lines is shown between them. Then, green fluorescence expressed when adding citrate to the detection sensor inserted to the cell lines was observed. The image (FIG. 9D) after adding citrate, the photo image (FIG. 9E) thereof and their overlapped image (FIG. 9F) are shown in FIG. 9D to FIG. 9F.

CC1(C)OB(c2ccc(-c3nc(-c4ccc(-c5nc(-c6ccccc6)c(-c6ccccc6)[nH]5)cc4)no3)cc2)OC1(C)C [ARBD, 5-(4-(4,4,5,5-tetramethyl-1,3,2-dioxaborolan-2-yl)phenyl)-3-(4-(4,5-diphenyl-1H-imidazol-2-yl)phenyl)-1,2,4-oxadiazole]
Fluorescence quantum yield [1]: 0.18
Maximum absorption wavelength (λabs) [1]: 352
Maximum emission wavelength (λemiss) [1]: 458
fluorescence emission wavelength ([1]; citrate added, 2 μM ARBD, 10 mM HEPES buffer (2 vol % DMSO), pH 7.4, strong fluorescence, color change blue to green): 548 nm
fluorescence emission wavelength ([1]; sensor not subjected to reaction with citrate, weak (blue) fluorescence): 458 nm
k (reaction rate constant) [2]: 0.148 min⁻¹
pH of highest and stable fluorescence intensity ([3]; ARBD and citrate at different pH values): 7-8 pH
time to maximum value of fluorescence intensity ([3]; citrate 0-0.9 μM): ≤ 15 min
stability of fluorescence intensity after reaction with citrate ([3]; citrate 0-0.9 μM, whole concentration range): maintained constantly to 60 minutes
detection limit for citrate ([4]; S/N=3, 2 μM ARBD): 10 nM
new absorption peak position on addition of citrate ([4]; citrate 0 to 12 μM): 400 nm
absorption peak ([4]; initial stage, no citrate): 346 nm
selectivity: fluorescence enhancement by citrate versus other ions ([5]; 1 μM citrate, 0.5 mM fumarate, benzoate, glutamate, succinate, malonate, oxalate, acetate, phosphate, sulfite, sulfate): only citrate can induce fluorescence enhancement
selectivity versus materials having a diol moiety ([5]; H2O2, glucose, fructose, sucrose, dopamine species, citrate emits green, H2O2 blue fluorescence): reacts only with citrate and hydrogen peroxide
interference of other ionic compounds with detection of citrate ([5]; other species at least 500 times higher concentration than citrate): no effect upon the detection of citrate
fluorescence in cells after adding citrate (PC3 cells): reacts with citrate to express a green color
